Source: article PMC4935531 (Journal of Acquired Immune Deficiency Syndromes (1999), 2016)
pIC50: −log10 of the molar value. Read-outs that look alike come from different tables or passages of the source.

What was measured:
[1] = format: in vivo, human; conditions: for Metformin t(1/2) with vs without co-administration of dolutegravir: dolutegravir 50 mg q24h or q12h
[2] = Safety monitoring: drug-related adverse events in healthy subjects; format: in vivo, human; conditions: metformin 500 mg q12h alone or with dolutegravir 50 mg q24h or q12h
[3] = cited from earlier work
human PMAT = target: T1, human PMAT (Homo sapiens, UniProt Q7RTT9); experiment: Inhibition of probe substrate uptake by PMAT in transfected MDCK-II cells; format: in vitro ADME; conditions: dolutegravir ≤100 μM; 10 µM [14C]metformin
T1 sequence (Q7RTT9 1-530): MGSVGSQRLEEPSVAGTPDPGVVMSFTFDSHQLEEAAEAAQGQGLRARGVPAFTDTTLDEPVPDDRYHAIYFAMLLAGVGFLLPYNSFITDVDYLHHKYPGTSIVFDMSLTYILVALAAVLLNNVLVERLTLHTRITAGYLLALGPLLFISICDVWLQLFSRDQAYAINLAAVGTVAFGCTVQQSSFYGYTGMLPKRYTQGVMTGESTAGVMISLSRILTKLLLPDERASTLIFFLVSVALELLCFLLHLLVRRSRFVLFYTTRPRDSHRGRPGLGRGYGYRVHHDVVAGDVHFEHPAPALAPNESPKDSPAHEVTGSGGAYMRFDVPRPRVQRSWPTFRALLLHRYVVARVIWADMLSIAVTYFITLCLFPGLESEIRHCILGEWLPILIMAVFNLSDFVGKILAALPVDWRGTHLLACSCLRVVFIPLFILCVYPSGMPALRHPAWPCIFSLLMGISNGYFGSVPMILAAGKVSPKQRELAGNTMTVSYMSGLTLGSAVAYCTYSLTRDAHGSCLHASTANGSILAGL

human OCT3 = target: T2, human OCT3 (Homo sapiens, UniProt O75751); experiment: Inhibition of probe substrate uptake by OCT3 in transfected MDCK-II cells; format: in vitro ADME; conditions: dolutegravir ≤10 μM; 10 µM [14C]metformin
T2 sequence (O75751 1-556): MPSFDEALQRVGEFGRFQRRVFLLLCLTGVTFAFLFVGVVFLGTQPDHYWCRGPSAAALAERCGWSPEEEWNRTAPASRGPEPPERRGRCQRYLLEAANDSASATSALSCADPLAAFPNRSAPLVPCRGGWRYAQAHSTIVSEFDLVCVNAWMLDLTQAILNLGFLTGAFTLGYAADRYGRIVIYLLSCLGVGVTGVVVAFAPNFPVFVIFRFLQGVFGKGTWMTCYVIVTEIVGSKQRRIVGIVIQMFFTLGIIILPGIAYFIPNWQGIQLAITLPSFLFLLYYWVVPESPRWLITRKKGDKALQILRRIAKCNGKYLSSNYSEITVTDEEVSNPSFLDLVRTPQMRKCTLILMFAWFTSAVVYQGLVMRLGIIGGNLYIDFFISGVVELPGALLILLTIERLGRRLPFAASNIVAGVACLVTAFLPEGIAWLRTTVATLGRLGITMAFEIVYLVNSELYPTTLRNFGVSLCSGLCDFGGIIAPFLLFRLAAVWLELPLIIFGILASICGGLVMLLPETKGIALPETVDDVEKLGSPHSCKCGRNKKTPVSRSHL

Caco-2 cell monolayers = experiment: Cellular uptake of [14C]metformin in Caco-2 cell monolayers; format: in vitro ADME; conditions: dolutegravir 0.3-100 µM
OCT2 [4] = conditions: cited from earlier work
OCT1 = conditions: at 10 μM; cited from earlier work
OCT2 [5] = conditions: cited from earlier work; remark: listed apart in the source
[6] = co-administration of cimetidine

CN(C)C(=N)N=C(N)N [Metformin]
Decrease in metformin CL/F ([1]; co-administration of dolutegravir 50 mg q12h): 59%
Decrease in metformin CL/F ([1]; co-administration of dolutegravir 50 mg q24h): 44%
Metformin t(1/2) with vs without co-administration of dolutegravir [1]: unchanged
Metformin t(1/2) with vs without co-administration of dolutegravir ([1]; listed as metformin): similar
Tolerability [2]: well tolerated
Fraction of drug excreted unchanged in the urine ([3]; within 24 hours, oral and intravenous administration): 90%

CN/C(=N/CCSCc1nc[nH]c1C)NC#N [Cimetidine]
Increase in metformin AUC [3, 6]: 40%
Increase in metformin peak concentration [3, 6]: 60%

C[C@@H]1CCO[C@H]2Cn3cc(C(=O)NCc4ccc(F)cc4F)c(=O)c(O)c3C(=O)N12 [Dolutegravir]
Inhibition of [14C]metformin uptake by PMAT (human PMAT): no inhibition
Inhibition of [14C]metformin transport by OCT3 (human OCT3): no inhibition
Effect on cellular uptake of metformin in the Caco-2 intestinal cell line (Caco-2 cell monolayers): unaffected
pIC50 (OCT2 [4]; read-out: IC50 for OCT2): 5.72
pIC50 (OCT2 [4]; read-out: OCT2 inhibitory potency, tetraethylammonium as the substrate): 7.18
Inhibition of OCT1 (OCT1): 22%
Dolutegravir free fraction (OCT2 [5]): ≥ 1.1%
Cmax (OCT2 [5]; read-out: Dolutegravir Cmax, twice daily dosing): 13 µM
